Tests used:
A549 cells = format: cell-based, human
Procedure: To quantitatively evaluate the corresponding cellular uptakes and average fluorescent intensity of linear SIO or stable SIO in human lung cancer cells, A549 cells were treated with PBS (as blank), FITC, stable SIO and linear SIO for 2 hours and then were analyzed by flow cytometry (Figure 5). […] Almost identical results were obtained from another lung cancer cell line H1299 (Figure 5D–5F). Therefore, the results were consistent with the cell fluorescent imaging analysis, which indicated stable SIO was much more appropriate to penetrate into cells.
Figure 5 Delivery efficiency of stable SIO or linear SIO in A549 or H1299 cells evaluated by flow cytometry (A and D) A549 or H1299 cells were treated with PBS (as blank), FITC (5 μM), linear SIO (5 μM) and stable SIO (5 μM) for 2 hours and the statistical count of cells were gathered by flow cytometry. […] Average fluorescence intensity presents the FITC intensity in the cells. […]
To test the delivery efficiency of stable SIO or linear SIO, A549 cells were cultured in the 6-well plates and were treated with PBS (as blank), FITC, stable FITC-SIO and linear FITC-SIO separately for […]. […] Samples were then analyzed by the FACSCalibur flow cytometer (Becton Dickinson). The cellular uptake and average fluorescent intensity were analyzed using Flowjo software.

A549 and H1299 cells = experiment: Anti-proliferative effect, MTT and CCK-8 assays; format: cell-based, human; conditions: A549 and H1299, MTT and CCK-8, 5 μM, n = 3
Procedure: Cell proliferation and apoptosis are crucial markers of cancer metastasis and invasive properties. To explore whether the stable SIO has much better effect on inhibiting the proliferation of A549 and H1299 cells, MTT and CCK-8 assays (Supplementary Figure 1) were conducted to investigate the anti-proliferative effect in PBS, FITC, stable SIO and linear SIO treated groups. […] It was worth noting that the anti-proliferative effect of SIO was in a time-dependent manner, which was significant at 48 hours (54%), and was peaked at 72 hours (70%).
Figure 6 The strong cell penetration of stable SIO in A549 or H1299 cells inhibited cell proliferation and induced cell apoptosis FITC-Annexin V and propidium iodide (PI) containing apoptosis assay on A549 or H1299 cells treated with PBS (as blank), FITC (5 μM), linear SIO (5 μM) and stable SIO (5 μM) for 72 hours. (A and D) Apoptotic cells stained with Annexin V/PI were measured by flow cytometry. (B and E) The statistic results of cell apoptosis by flow cytometry. […] Percentage cell viability of the treated cells is calculated relative to that of PBS treated cells (with arbitrarily assigned 100% viability). […]
Cell viability was measured using Cell Counting The plates were processed as described above, and the Kit-8 (CCK-8, Sigma, St. Louis, MO, USA) following the OD450 of the supernatant was measured. […]

delivery (permeability) efficiency: ratio of fluorescent cell counts to total cell counts (A549 cells): 5.82 ± 0.95%
SMILES: O=C1OC2(c3ccc(O)cc3Oc3cc(O)ccc32)c2ccc(N=C=S)cc21 [FITC]
inhibition of cell growth (in words) (A549 and H1299 cells): no obvious inhibition
